Changes are numbered by the printed parent chain. Blank lines part the entries; values can stand above or below the compound they belong to.
How the values were obtained:
[1] = target: cytoplasmic domain (CPD) of the mouse Kir3.2 E236R mutant (mouse); assay: not stated; purified CPD E236R in solution; the method for the oligomeric state is not told
[2] = target: cytoplasmic domain (CPD) of the mouse Kir3.2 E236R mutant (mouse); assay: crystal structure; sitting drops; reservoir 15% (v/v) ethanol, 0.1 M HEPES-NaOH (pH 7.5), 0.2 M MgCl2; 4°C; space group P4212; 2.0 Å
[3] = tested on: Kir3.2 WT; assay: Inside-out patch clamp recording of channel activity; format: cell-based, mouse; conditions: Kir3.2 WT in HEK293T inside-out patches, −100 mV
Description: (§1) The Kir3.2d and m2R subcloned into pcDNA3 (Invitrogen) were transfected into HEK293T cells using the Lipofectamine Plus reagent (Invitrogen, Carlsbad, CA). Single-channel activity was recorded in a cell-attached configuration at a holding potential of -100 mV using a patch-clamp amplifier (Axopatch 200B; Axon Instruments). The current traces were low-pass filtered at 1 kHz and digitized at 10 kHz. The glass pipettes had resistances of 2.5–3.5 MΩ when filled with the pipette solution, which contained 135 mM KCl, 1 mM CaCl2, 1.6 mM MgCl2, 5 mM HEPES, and 5 μM ACh; the bath solution was a Tyrode solution. A 50% crossing criterion for the current amplitude was used to judge the single-channel activity.
(§2) Inside-out patch clamp experiments were performed by the excision of patch membranes in the cell-attached configuration. The bath solution consisted of 135 mM KCl, 5 mM EGTA, 2 mM MgCl2 and 5 mM HEPES. The holding potential was -100 mV. We perfused ATP at the intracellular side to produce PIP2 at the inner leaflet of the plasma membrane, GTP (3 μM) to produce Gβγ mildly and GTPγS (10 μM) to generate Gβγ maximally. The pH of all solutions was adjusted to 7.35 with KOH prior to the experiments. All experiments were conducted at ambient temperature (20–25°C).
Figure 5 Inside-out patch recordings of Kir3.2 WT and mutant channels. […]

[4] = target: T1, Kir3.2 M313T (Mus musculus, UniProt P48542, I313T); assay: as above; format: cell-based; conditions: Kir3.2 M313T in HEK293T inside-out patches, −100 mV
T1 sequence (P48542 19-425 I313T): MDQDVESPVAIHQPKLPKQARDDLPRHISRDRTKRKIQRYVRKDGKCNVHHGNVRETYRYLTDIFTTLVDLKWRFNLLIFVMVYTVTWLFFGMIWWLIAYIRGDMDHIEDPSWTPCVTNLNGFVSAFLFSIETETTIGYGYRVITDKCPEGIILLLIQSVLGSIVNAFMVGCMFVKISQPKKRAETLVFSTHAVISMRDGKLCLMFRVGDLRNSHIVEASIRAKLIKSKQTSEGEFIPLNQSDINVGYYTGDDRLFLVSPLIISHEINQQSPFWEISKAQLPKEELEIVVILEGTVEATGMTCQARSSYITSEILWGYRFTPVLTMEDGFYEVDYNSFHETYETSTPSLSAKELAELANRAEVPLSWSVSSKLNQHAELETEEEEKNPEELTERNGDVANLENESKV
T1 sequence (P06199 1-466 partner): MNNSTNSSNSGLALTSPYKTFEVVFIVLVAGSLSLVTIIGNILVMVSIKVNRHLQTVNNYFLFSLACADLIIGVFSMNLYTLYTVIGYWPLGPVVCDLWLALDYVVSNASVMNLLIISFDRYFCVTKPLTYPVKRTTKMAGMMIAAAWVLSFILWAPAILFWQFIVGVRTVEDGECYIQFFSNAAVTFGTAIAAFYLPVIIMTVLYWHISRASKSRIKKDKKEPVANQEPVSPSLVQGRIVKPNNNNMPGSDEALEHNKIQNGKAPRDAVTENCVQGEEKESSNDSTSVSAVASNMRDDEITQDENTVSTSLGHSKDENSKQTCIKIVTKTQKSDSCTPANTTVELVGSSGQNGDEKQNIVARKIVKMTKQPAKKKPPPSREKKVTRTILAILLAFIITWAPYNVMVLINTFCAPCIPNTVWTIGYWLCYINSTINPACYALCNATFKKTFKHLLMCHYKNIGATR
Description: as §1, §2
(§3) Figure 5 Inside-out patch recordings of Kir3.2 WT and mutant channels. Inside-out membrane patches were obtained from HEK293T cells expressing either Kir3.2 WT (A), M313G (B) or M313T mutant (C) channels. Experiments were conducted in symmetric 135 mM K^+ solutions with a holding potential of -100 mV. Perfusion of ATP was for the generation of PIP2 at the inner leaflet of the excised patch membranes. The protocol used for perfusion of substances to the intracellular side of the patch membrane is indicated by bars above the current traces.

[5] = target: T2, Kir3.2 M313G (Mus musculus, UniProt P48542, I313G); assay: as above; format: cell-based; conditions: Kir3.2 M313G in HEK293T inside-out patches; ATP perfused at 2 mM; −100 mV
T2 sequence (P48542 19-425 I313G): T1 sequence (P48542 19-425 I313T) with T295G
T2 sequence (P06199 1-466 partner): T1 sequence (P06199 1-466 partner)
Description: as §1, §2, §3

stoichiometry N [1]: 4 | stoichiometry N [2]: 4
Compound: cytoplasmic domain (CPD) of the mouse Kir3.2 E236R mutant (domain or fragment)

Channel activity as % of the response evoked by GTPγS ([4]; GTP (3 μM)): about 11 ± 2%
Compound: Nc1nc2c(ncn2[C@@H]2O[C@H](COP(=O)(O)OP(=O)(O)OP(=O)(O)O)[C@@H](O)[C@H]2O)c(=O)[nH]1 [GTP]
Channel activity as % of the response evoked by GTPγS ([3]; GTP (3 μM)): 4 ± 2%

Compound: Nc1ncnc2c1ncn2[C@@H]1O[C@H](COP(=O)(O)OP(=O)(O)OP(=O)(O)O)[C@@H](O)[C@H]1O [ATP]
Channel activity as % of that evoked by 10 μM GTPγS ([3]; ATP perfused at 2 mM): 15 ± 4% | Sensitivity to ATP perfusion ([4]; in contrast to M313G): less sensitive | Channel activity as % of that evoked by 10 μM GTPγS [5]: 59 ± 6%
